Where no end group is shown, it is not given here.
How the values were obtained:
MSC2 cells [1] = experiment: MSC2 proliferation (RTCA-DP, BrdU); type: cell-based; conditions: exosomes from B16F10, A8 16 μM and 32 μM
Procedure: (§1) FIG. 9: TDE and A8 effects on MSC2 and MDSC proliferation. A) Dynamic monitoring of in vitro MSC2 cell proliferation using the RTCA-DP system (Real-Time Cell Analyzer). MSC2 were incubated or not for 11 h with exosomes (from B16F10) in the absence or presence of A8 (16 μM and 32 μM). Cell index values were measured every 30 seconds (n=3). B) MSC2 were incubated or not for 24 h with exosomes (from B16F10) in the absence or presence of A8 (16 μM). Then, cells were labelled with BrdU and incorporation was determined by flow cytometry (n=3). C) MDSC were treated with exosomes (from B16F10) in the absence or presence of A8 ([…]) for 24 hours and then analyzed for proliferation by Cellometer-mini. *p<0.05.
(§2) MSC2 cells proliferation were analyzed by to different techniques. First, MSC2 (1·10^4) were seeded onto 16-well plates with medium containing 10% FBS and incubated for 34 hours. […] Into each well of the micro-electronic sensor transendothelial electric resistance (TER) was measured by xCELLigence real time cell analyzer DP system (Roche). TER was measured every 30 s and then normalized to the initial value. […] MDSC proliferation was analyzed by cell counting. MDSC cells (1·10^6) from spleen of naive mice (see MDSC isolation section) were treated or not with exosomes (from B16F10) in the absence or presence of A8 (16 μM) for 24 hours and then analyzed for viability by Cellometer-mini (Ozyme).

MSC2 cells [2] = experiment: pSTAT3 western blot in MSC2 cells incubated with tumor-derived exosomes; type: cell-based
Procedure: (§3) FIG. 4: A8 blocks the activation and proliferation of MSC2 cells. (A) IL-6 concentration was determined by ELISA in the supernatant of MSC2 cells incubated or not for 24 h with exosomes (from B16F10) in the presence or absence of A8. *, p<0.05, (n=3). (B) A representative image of a western blot showing the kinetics of STAT3 phosphorylation in MCS2 cells incubated or not with exosomes isolated from B16F10, CT26 or HCT116 cells together with a peptide control (TDE) or A8 (TDE/A8). 14-3-3 is used as a loading control. In the right panels, the amount of pSTAT3 was quantified by densitometric analysis. *, p<0.05, n=4.
Five millions of MSC2 cells were incubated with or without exosomes isolated from B16F10, CT26, HCT116 or SW480 cells in the presence or absence of A8 during 4 h or 6 h. Cells were isolated, lysed and analysed for pSTAT3 by western blotting.
(§4) MSC2 (2·10^6) or MDSC (2·10^6) were incubated alone or with exosomes (from B16F10, CT26, HCT116, SW480) in the absence or presence of A8 or A17 (16 μM) during 6 hours (RPMI 10% FBS, 5% of CO2 at 37° C.). Every 2 hours, […] cells were sampled and centrifugated 5 min at 300 g. Cells were lysed in lysis buffer (50 mM HEPES (pH 7.6), 150 mM NaCl, 5 mM EDTA, and 0.1% NP40 and anti-phosphatases, Roche). Then, pSTAT3 and STAT3 expression were analyzed by western blotting.

primary MDSC = experiment: Primary MDSC proliferation (Cellometer-mini); type: cell-based, mouse; conditions: exosomes from B16F10, A8 16 μM, 24 hours
Procedure: as §1, §2

primary MDSC cells = experiment: Activation of primary MDSC by exosomes (pSTAT3, IL-6, IL-10, IFNγ in T cell co-culture); type: cell-based; conditions: primary MDSC from mouse spleen, exosomes from B16F10, A8 16 μM
Procedure: FIG. 8: A8 blocks the activation of primary MDSC cells. A) A representative image of a western blot showing the kinetics of STAT3 phosphorylation in MDSC cells incubated or not with exosomes isolated from B16F10 cells together with a peptide control (MDSC/TDE) or A8 (MDSC/TDE/A8). B-C) IL-6 (B) and IL-10 (C) concentration was determined by ELISA in the supernatant of MDSC cells incubated or not for 24 h with exosomes (from B16F10) in the absence or presence of A8 (16 μM). D) IFNγ concentration was determined by ELISA in the supernatant of co-cultured MDSC and T lymphocytes incubated or not for 5 days with exosomes (from B16F10) in the absence or presence of A8 ([…]). **, p<0.01; *, p<0.1 (n=3).
as §4
Single-cell suspensions were prepared from spleens, and red cells were removed using ammonium chloride lysis buffer. […] All events were acquired by a BD Bioscience LSR-II device and analyzed with FlowJo (Tree Star). […]

MSC2 cells [3] = experiment: IL-6 ELISA in supernatant of MSC2 cells incubated with exosomes; type: cell-based; conditions: exosomes from B16F10, 24 h
Procedure: as §3
MSC2 cells were incubated alone or co-incubated with exosomes from B16F10 cells and/or A8 (during 24 h). Then, the supernatant was collected and centrifuged at 300 g at 4° C. for 5 min and analyzed with IL-6 ELISA assay (BD biosciences) according to the manufacturers' protocol.
Supernatants, collected from MSC2 or MDSC or co-cultured cells incubated alone or with exosomes from B16F10 cells and/or A8 (8 or 16 μM) were analyzed with IL-6, IL-10 and IFN gamma ELISA assay (BD biosciences) according to the manufacturers' protocol.

## SPWPRPTY [Aptamer A8, SPWPRPTY]
MSC2 cells [1]
  TDE-induced proliferation of MSC2: blocked
MSC2 cells [2]; exosomes from CT26, B16F10, HCT116, SW480, 4 h and 6 h, aptamer 16 μM
  STAT3 phosphorylation (activation) in MSC2 induced by tumor-derived exosomes: inhibited the ability of tumor-derived exosomes to activate STAT3
MSC2 cells [2]; no exosomes
  MDSC activation (STAT3 phosphorylation in MSC2) in the absence of tumor-derived exosomes: does not have a direct effect in MDSC activation
Primary MDSC
  TDE-induced proliferation of primary MDSC: blocked
Primary MDSC cells
  MDSC activation markers (IL6 release, STAT-3 phosphorylation, IL10 release, IFNgamma release by T cells): blocks all MDSC activation markers
MSC2 cells [3]
  IL-6 production by MSC2 stimulated by tumor-derived exosomes: abrogated

Reference: patent US20170131285A1, “METHODS AND COMPOSITIONS FOR DIAGNOSING, MONITORING AND TREATING CANCER” (INSERM (Institut National de la Sante et de la Recherche …, priority 2014, published 2017)
